This is an account of results in patent US6569404B1, “Phase shift colloids as ultrasound contrast agents” (priority 1993, dated 2003).

The nature of series [1]: Backscatter persistence and intensity of 2% mixtures in saline, 1000 mL water at 37° C., Hewlett-Packard 77020A. As to conditions: for Ratio of Persistence: 2% in saline, saline+air set as 1; for Ratio of Intensity: backscatter intensity qualitatively ranked from 0 to 5. As to the method: The following emulsions were formulated and tested according to methods described in Example 18.
All solutions were made as a 2% solution in saline. A volume of 0.1 cc of each chemical was comminuted with 5 cc saline through a 3-way stopcock for 25 passes. A volume of 1.0 mL of the mixture was immediately injected through a 1.2 μm filter into a stirring water bath containing 1000 mL water at 37° C. The resulting backscatter was then recorded with the use of a Hewlett-Packard 77020A Ultrasound System at […].

For series [2] the following is noted: cited from earlier work; for B.P.: chemicals of Example 52.
A short description of series [3]: Acoustic backscatter: gray scale intensity (videodensity) in water beaker at 37° C., Hewlett Packard 77020 scanner, 5.0 MHz. The method, then: Two solutions were prepared to simulate the administration to an organism of either a colloidal dispersion of a low boiling liquid or the liquid, neat.
The emulsions contained Fluorad 170 C as surfactant and were formed by applying acoustic energy from a waterbath sonicator.

The nature of series [4]: Emulsion stability versus relative HLB of Pluronic L61/F68 mixtures. As to conditions: from stability of emulsions. The format is physicochemical. An excerpt:
The relative hydrophilic-lipophilic balance (HLB) is a method of optimizing a nonionic surfactant solution to achieve greatest stability. It is described in detail in Emulsions: Theory and Practice, Paul Becher, 1965, Robert E. Krieger Publishing Company Malabar, Fla., and references contained therein, and is incorporated here by reference. Solutions of Pluronic L61 (HLB 3.0) and F68 (HLB 29) were mixed to achieve intermediate HLB values by the following formula:
HLB=fL61 {HLB of L61}+ff68 {HLB of F68} The actual solutions, the calculated HLB values, and the stability of the final formulation (a 2% v/v emulsion of dodecafluorohexane) are contained in the following table: […]

A short description of series [5]: Expected change in dispersion size from liquid and gas densities. As to conditions: calculated from cubic root of volume. As to the method:
One can also calculate the expected change in dispersion size if one knows the relative densities of the dispersed liquid as a gas and liquid. For example, the Gas Data Book, by W Braker and A Mossman, Matheson, contains such data. Examining octafluorocyclobutane, one finds that 1 L of the liquid yields 188 L of gas at a pressure of 760 mm Hg and 15° C. Since the volume of a sphere is related to the diameter of a sphere by the cubic root of the volume, the phase transition for an octafluorobutane emulsion particle will cause a 5.7-fold increase in diameter.

The conditions of series [6]: 760 mm Hg and 15° C.; Gas Data Book; cited from earlier work.
For series [7] the following is noted: at 25° C.; cited from earlier work.
Series [8] in a line: In vitro ultrasound backscatter / echogenicity of formulations (qualitative). As to conditions: in words.
Another series has as its system dogs. Conditions: Ziskin et al. 1972, cited from earlier work.
The nature of series [9]: Interfacial tension against dodecafluoropentane at 4° C., Kruss Drop Volume Tensiometer DVT-10. The series is classed as physicochemical. Conditions: from graph of IFT versus HLB. As to the method:
Mixtures of Pluronic P-123 and Pluronic F-127 were formed, yielding a 1% solution, v/v, with graded HLB numbers and the interfacial tension (IFT) of the solutions against dodecafluoropentane determined at 4° C., using a Kruss Drop Volume Tensiometer DVT-10, Kruss USA, Charlotte, N.C. The results are contained in the following table:
Interfacial tensions of various amphiphilic materials in aqueous solutions (all expressed as v/v solutions) against dodecafluoropentane were measured at 4° C. and emulsions created from each formulation, as described in Example 13.

Setting [10] is: 1.0 mL in 1000 mL water at 37° C.
Setting [11] is: emulsion with Fluorad 170 C, 0.2 mL in 1000 mL water at 37° C., six seconds, backgrounds 2.9, 3.0, 3.6.
The mark [12] stands for this setting: dispersed phase of emulsions of Example 18.
Setting [13] is: Chemical List of low boiling liquids, Example 45.

“And” between values parts separate entries of the source, which are not always exact repeats. Identical values can stand only once. Like-named read-outs stand apart in the source and are kept apart here.

As to `FC1(F)C(F)(F)C(F)(F)C2(F)C(F)(F)C(F)(F)C(F)(F)C(F)(F)C2(F)C1(F)F` (centres unmarked) [Perfluorodecalin], the “Ratio of Persistence” value in series [1] (setting [10]) stood at 9. In series [1], the “Ratio of Intensity” value was determined as 2.0. Also, the B.P. in [2] was 141 °C.
`CCCCCCCCC` [Nonane]: the “Ratio of Persistence” value in [1] (setting [10]) was determined as 9. Also, the “Ratio of Intensity” value in [1] was determined as 0.5. Moreover, the B.P. in series [2] was 151 °C.
The molecule `FC1(F)C(F)(F)C(F)(F)C(F)(F)C1(F)F` [perfluorocyclopentane] yielded a grayscale intensity in series [3] (setting [11]) of 158.9 units. Further, in [2], the Boiling Point is 22.5 °C and 22 °C.
`FC(F)(F)C(F)(F)C(F)(F)C(F)(F)C(F)(F)C(F)(F)F` [Perfluorohexane, reference compound]: the “relative HLB established” value in [4] was 6-8. Further, the “Boiling Point” value in series [2] (setting [12]) was 59 °C.
For the molecule `FC(F)(F)C(Cl)Br` (centres unmarked) [Halothane], the “Ratio of Persistence” value in [1] (setting [10]) was 6. Besides, the “Ratio of Intensity” value in series [1] is given as 0.25. The B.P. in series [2] was 50 °C.
Turning to `FC1(F)C(F)(F)C(F)(F)C1(F)F` [octafluorocyclobutane], the “increase in diameter of emulsion particle on phase transition” value in series [5] was 5.7 fold. The “volume of gas from 1 L of the liquid” value in [6] is 188 L.
Take `ClCCCl` [1,2, Dichloroethane, reference compound]: the “Ratio of Persistence” value in series [1] (setting [10]) stood at 6. In series [1], the “Ratio of Intensity” value worked out at 0.25. Besides, the B.P. in [2] was 83 °C. The “Vapor Pressure” value in series [7] is 87 mmHg at 25 °C.
Turning to `CCOCC` [ether, diethyl ether], in series [8], the “in vitro ultrasound backscatter characteristics” value is recorded as “useful contrast signal”. Further, the “Boiling Point” value in [2] (setting [13]) was 34.5 degrees Celcius. Moreover, the lethality entry in the series on dogs (injections of 20 mL) is recorded as “proved fatal”. Further, in the series with dogs (intraarterial), the “contrast effect (Doppler signal)” value is “greatest contrast effect of any agent that we tried”.
Turning to `FC(F)(F)C(F)(F)C(F)(F)C(F)(F)C(F)(F)F` [dodecafluoropentane], in series [1] (setting [10]), the “time over which backscatter diminished” value lay within 4 to 5 min. In series [1] (setting [10]), the “Ratio of Persistence” value was 24. Also, the “Ratio of Intensity” value was determined as 5 in series [1] and 5.0 in [1] (listed as Dodecafluoropentane). The grayscale intensity in series [3] (setting [11]) amounted to 58.5 units; in [3] (fifty-two seconds post-injection into 1000 mL water at 37° C., gray scale of 2 to 254) it was 5.0; in series [3] (five seconds post-injection into 1000 mL water at 37° C., gray scale of 2 to 254, 0.1 mL emulsion (before 4.27) or 0.2 mL neat liquid (before 4.9)), 7.7. Also, the “Boiling Point” value was 30.5 degrees Celcius in series [2] (setting [13]), 28-29 °C in series [2] and 29 °C in series [2] (setting [12]). Moreover, the B.P. in [2] was 29 °C. In series [7], the “Vapor Pressure” value was 646 mmHg at 25 °C. In addition, the “HLB for the dispersed phase liquid” value in [9] is listed as “about 14”.
For `CS` [Methanethiol], in [2] (setting [13]), the “Boiling Point” value is 62 degrees Celcius.
As to `C/C=C/C` [2-Butene (trans)], in series [2] (setting [13]), the “Boiling Point” value is listed as 0.9 degrees Celcius.
Consider `FC(=C(F)C(F)(F)F)C(F)(F)F` [2-Butene, perfluoro], for which, in [2] (setting [13]), the “Boiling Point” value is 0.0 degrees Celcius.
Consider `O=NC(F)(F)Br` [Methane, bromo difluoro nitroso], for which the “Boiling Point” value in series [2] (setting [13]) is −12.0 degrees Celcius.
As to `C=CCC` [Example 1-Butene, 1-Butene], the “Boiling Point” value in [2] (setting [13]) is given as −6.3 degrees Celcius.
As for `CON=O` [Methyl nitrite], the “Boiling Point” value in series [2] (setting [13]) is −12.0 degrees Celcius.
For `[Ne]` [Neon], the “Boiling Point” value in series [2] (setting [13]) is −246.0 degrees Celcius.
As for `ClCCl` [Methane, dichloro], the “Boiling Point” value in series [2] (setting [13]) was 40.0 degrees Celcius.
